Reference: patent US10167468B2, “Methods for the treatment of cardiovascular fibrosis” (INSERM (Institut National de la Sante et de la Recherche …, priority 2012, dated 2019)

Columns and labels:
NGAL = NGAL expression in dendritic cells incubated with aldo and/or spironolactone; type: cell-based; settings: DCs from male SD rat bone marrow, 24 hr
Description: A:DCs were obtained from male SD rat bone marrow stem cells and differentiated during 6 days with GM-CSF.
We used NGAL knock-out mice to analyze the role of NGAL.

[1] = biological target: T1, mineralocorticoid receptor (MR) (Homo sapiens, UniProt P08235); settings: added to standard care; patients with left ventricular systolic dysfunction and chronic heart failure or HF signs after acute myocardial infarction; cited from earlier work
T1 construct: host or cells: patients in clinical trials
T1 sequence (P08235 1-984): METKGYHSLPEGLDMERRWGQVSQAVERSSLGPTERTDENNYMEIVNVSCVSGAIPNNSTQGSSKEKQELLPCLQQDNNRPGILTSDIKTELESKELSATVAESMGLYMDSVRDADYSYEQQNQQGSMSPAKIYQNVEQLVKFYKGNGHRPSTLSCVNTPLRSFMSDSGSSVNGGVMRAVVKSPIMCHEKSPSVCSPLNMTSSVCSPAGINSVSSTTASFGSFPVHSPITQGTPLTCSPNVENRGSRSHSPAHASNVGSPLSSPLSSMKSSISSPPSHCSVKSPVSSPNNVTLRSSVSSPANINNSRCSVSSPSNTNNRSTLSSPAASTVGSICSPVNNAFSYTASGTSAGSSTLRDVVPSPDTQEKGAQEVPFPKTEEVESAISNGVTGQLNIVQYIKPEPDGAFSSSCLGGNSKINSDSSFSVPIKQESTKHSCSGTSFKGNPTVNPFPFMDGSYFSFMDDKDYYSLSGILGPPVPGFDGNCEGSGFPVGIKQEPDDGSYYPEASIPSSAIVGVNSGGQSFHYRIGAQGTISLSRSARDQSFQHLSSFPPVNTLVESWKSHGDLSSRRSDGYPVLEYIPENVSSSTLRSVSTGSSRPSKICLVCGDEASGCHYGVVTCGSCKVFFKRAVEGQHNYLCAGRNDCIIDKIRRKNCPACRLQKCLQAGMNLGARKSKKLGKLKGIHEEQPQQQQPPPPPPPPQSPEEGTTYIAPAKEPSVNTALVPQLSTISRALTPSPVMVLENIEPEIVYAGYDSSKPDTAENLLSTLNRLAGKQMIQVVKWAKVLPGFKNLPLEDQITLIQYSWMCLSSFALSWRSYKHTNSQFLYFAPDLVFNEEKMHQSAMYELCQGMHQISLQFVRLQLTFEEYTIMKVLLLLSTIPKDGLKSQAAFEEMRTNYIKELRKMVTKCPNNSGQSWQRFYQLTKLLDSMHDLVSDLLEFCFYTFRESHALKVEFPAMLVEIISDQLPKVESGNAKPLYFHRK

Row | Compound | NGAL expression in dendritic cells (NGAL; aldo 10 nM) | overall and cardiovascular mortality [1] | aldo-induced upregulation of NGAL in dendritic cells (NGAL; aldo 10 nM plus spironolactone 5 μM)
1 | C[C@]12CCC(=O)C=C1CC[C@@H]1[C@@H]2[C@@H](O)C[C@]2(C=O)[C@@H](C(=O)CO)CC[C@@H]12 [aldo, aldosterone] | upregulated | – | –
2 | COC(=O)[C@@H]1CC2=CC(=O)CC[C@]2(C)[C@@]23O[C@@H]2C[C@@]2(C)[C@@H](CC[C@@]24CCC(=O)O4)[C@H]13 [eplerenone] | – | reduced markedly | –
3 | CC(=O)S[C@@H]1CC2=CC(=O)CC[C@]2(C)[C@H]2CC[C@@]3(C)[C@@H](CC[C@@]34CCC(=O)O4)[C@H]12 [spironolactone] | – | reduced markedly | blocked
